Reference: patent publication US7264947B2, “Activity dependent neurotrophic factor III (ADNF III)” (United States of America, as represented by the Secretary …, priority 1997, dated 2007)
Like-named read-outs stand apart in the source and are kept apart here.

How the values were obtained:
[1] = tested on: ADNF III mRNA; experiment: mimic polymerase chain reaction of ADNF III mRNA in mouse embryos incubated in vitro; assay type: cell-based; conditions: 9.5-day-old mouse embryos incubated in vitro for four hours, ratio with cyclophilin mRNA
[2] = tested on: astrocytes; experiment: western blot of secreted ADNF-like immunoreactivity in astrocyte conditioned medium; assay type: cell-based, rat
From the text: FIGS. 4A-B. FIG. 4A illustrates the western blot hybridization for immunological detection of the cloned ADNF III protein from bacterial extracts. Bacterial extracts expressing clone p25 were subjected to 10% SDS-polyacrylamide gel electrophoresis followed by western blot analysis with the antibodies used for cloning. […] CBB=Coomassie Brilliant Blue (protein) staining of the same lanes that were subjected western blot analysis. […] FIG. 4B illustrates immunological identification of a secreted ADNF III protein in astrocyte conditioned medium. Astrocyte-conditioned medium was prepared as described supra (see Brenneman & Gozes, J. Clin. Invest. 97:[…] (1996)), with a protein of a high molecular weight identified as the ADNF III molecule by western blot hybridization. SDS-polyacrylamide gel electrophoresis was performed as indicated in the above cited paper. Astroglial cultures obtained from newborn rat cerebral cortex were utilized. Cell extracts and conditioned medium from astrocytes that were treated or untreated with VIP (+, −) were subjected to electrophoresis through 10% polyacrylamide slab gel containing 0.1% SDS. Western blot analysis was performed with antibodies utilized for the cloning (anti-SALLRSIPA=α1).
a. Astrocytes: Astrocytes were prepared from 1-day-old (Sprague-Dawley) rats. […]

[3] = tested on: cerebral cortical cultures; assay type: cell-based, newborn rats; conditions: for dilutions giving significant neuroprotection against tetrodotoxin: dilutions of a 1 mg/ml protein solution (E. coli extract) in PBS, 1 μM tetrodotoxin, five days
[4] = tested on: choline acetyl transferase; experiment: brain ChAT (choline acetyl transferase) activity in ApoE-deficient mice; assay type: in vivo; conditions: daily subcutaneous injections from birth to 14 days, measured at 21 days
Method: The graph depicts incorporation of radio-labeled choline into acetylcholine. Experiments were conducted as described. Apo-E deficient mice are designated: ApoE; 100% activity in the control (C57B6) mice indicated 669758.4 pmole/mg protein/min. As the experiments were repeated 3-5 times the results were standardized against the control calibrated at 100% per each experiment. ApoE-deficient mice daily injected with peptides are designated ADNF-14, ADNF-9, and NAP, respectively.
ChAT activity was measured according to published procedures (Formum et al., Neurochem. 24:407-409 (1975)). Brains were homogenized with 10 volumes of 50 mM phosphate buffer containing 300 mM NaCl, 20 mM EDTA, and 0.5% triton. The homogenates were centrifuged at 12,000×g for 15 min., and […] of supernatant was mixed with […] of a solution of […] ^14C-acetyl CoA ([…] NEN), 20 mM acetylcholine, 1.6 mM choline chloride, 0.25 mM eserine, and phosphate buffer. Incubation was 15 min. at 37° C. The reaction was terminated and radioactivity was measured in a beta-counter. • 21. Apolipoprotein E (ApoE) Deficient Mouse Model
(§1) ApoE knockout mice and normal controls were a gift from the late Prof. Shlomo Eisenberg of Tel Aviv University, originally provided by Dr. J. L. Breslow (Plump et al., Cell 71:343-353 (1992)). The ApoE knockout mice were obtained from embryonic stem cells OLA 129 in C57B6×FVB mice (as described). Age-matched controls were inbred C57B6 mice. Groups of mouse pups were treated from birth until the age of 14 days. Daily subcutaneous injections included: […] saline (days 1 through 4), […] saline (days 5 through 10) and […] saline (days 11-14).
ChAT activity was measured according to published procedures (Formum et al., Neurochem. 24:407-409 (1975)).

[5] = tested on: ApoE-deficient mice; experiment: developmental milestones (placing response, cliff avoidance) in ApoE-deficient mice; assay type: in vivo; conditions: for acquisition of the placing response and the cliff avoidance response: daily injection; for marked improvement of placing response at the first day of treatment: tested 60 min. after injection
From the text: Animals (15-37 per experimental group, 5-8 per litter) were submitted to placing response assays daily following injection of: 1. saline (open circles, C57B6 mice=control, n=37, closed circles, ApoE deficient=ApoE, n=22). Experiments were repeated three times. Score indicates: 0=no reaction, 1=time to acquire a response shorter than 15 seconds; 2=time to acquire a response shorter than 10 seconds; 3=time to acquire a response shorter than 5 seconds. Age (days) indicate: the age of the tested animals in days. Results are mean±SEM.
as §1
Developmental milestones were measured using at least three dams with […] each for every experimental point. All observations were made between 12 noon and 4 pm. From day one through day six, mice were weighed and tested 60 min. after the daily injection. Placing is a behavioral parameter that is measured as the time elapsing between contact of the foot against the edge of an object and its placing on the top of the same object.
Further measurements in the Apo-E-deficient mouse included assessments of the time of onset of developmental milestones of behavior. […] A significant difference was observed among the treatment groups on the first day of testing (P<0.0001), with inbred C57B6 mice developing faster than the ApoE-deficient animals. […] NAP-treated animals were the fastest.

[6] = tested on: cerebral cortical cultures; experiment: neuroprotection against β-amyloid peptide (25-35) neurotoxicity in cerebral cortical cultures; assay type: cell-based, newborn rats; conditions: dilutions of a 1 mg/ml protein solution (E. coli extract) in PBS, 25 μM β-amyloid fragment 25-35, five days
[7] = tested on: neuronal cell death; experiment: neuroprotective effects of ADNF III (summary statement); assay type: cell-based
From the text: The present invention relates to the discovery of a nucleic acid encoding a novel neuroprotective polypeptide, i.e., Activity Dependent Neurotrophic Factor III (ADNF III), also called Activity Dependent Neuroprotective Protein (ADNP). […] Based on the recognized homology between ADNF I and hsp60, a heat shock protein, and PIF1, a DNA repair protein, these two epitopes were utilized to prepare antibodies which, in turn, were used to screen a mouse cDNA-expression library to identify the new neuroprotective polypeptide ADNF III. One mouse ADNF III cDNA clone consists of about 2418 base pairs of an open reading frame, which encodes an ADNF III polypeptide of about 806 amino acids, pI 5.85 (nucleotide sequence, SEQ ID NO:4; amino acid sequence, SEQ ID NO:3, see FIG. 1). An additional mouse cDNA has been cloned, encoding an ADNF III polypeptide of about 828 amino acids, pI 5.99 (nucleotide sequence, SEQ ID NO:54; amino acid sequence, SEQ ID NO:55; see FIG. 11). Human cDNAs encoding ADNF III have also been cloned (“H3” nucleotide sequence, SEQ ID NO:2; “H3” amino acid sequence, SEQ ID NO:1; “H3” nucleotide sequence, SEQ ID NO:56 and FIG. 12; “H3” amino acid sequence, SEQ ID NO:57 and FIG. 12; “H7” nucleotide sequence, SEQ ID NO:58 and FIG. 13; and “H7” amino acid sequence, SEQ ID NO:59 and FIG. 13). […] The promoter sequence for ADNF III has also been cloned (SEQ ID NO:60 and FIG. 14).

VIP: 28-amino acid peptide, secretagogue for ADNF
increase in ADNF III mRNA [1]: two-fold | increase in the secreted 60 KD ADNF-like immunoreactivity [2]: up to 2 fold

SVRLGLGGNAPVSIPQQS [reference compound]
neuroprotection (in words) ([3]; FIG. 6A/6B, toxin for the control curves not stated): inactive

SALLRSIPA [ADNF-9]
brain ChAT activity compared with vehicle-treated or untreated ApoE-deficient mice [4]: did not significantly improve | placing response from the second postnatal day onwards ([5]; P<0.0001): best performers | acquisition of the placing response and the cliff avoidance response [5]: showed acceleration | marked improvement of placing response at the first day of treatment [5]: marked improvement

VLGGGSALLRSIPA [ADNF-14]
brain ChAT activity compared with vehicle-treated or untreated ApoE-deficient mice [4]: did not significantly improve | level of performance reached in placing response [5]: never reached the level of performance of the NAP or ADNF-9 animals | day on which a significant difference between treated and untreated animals began to appear (placing response) ([5]; P<0.05): third postnatal day | acquisition of the placing response and the cliff avoidance response [5]: showed acceleration | marked improvement of placing response at the first day of treatment [5]: not

B1: clone 25: full length ADNF III expressed from clone 25, tested as E. coli protein extract (protein)
chain: MVNRLSIPKPNLNSTGVNMMSNVHLQQNNYGVKSVGQSYGVGQSVRLGLGGNAPVSIPQQSQSVKQLLPSGNGRSFGLGAEQRPPAAARYSLQTANTSLPPGQVKSPSVSQSQASRVLGQSSSKPPPAATGPPPSNHCATQKWKICTICNELFPENVYSVHFEKEHKAEKVPAVANYIMKIHNFTSKCLYCNRYLPTDTLLNHMLIHGLSCPYCRSTFNDVEKMAAHMRMVHIDEEMGPKTDSTLSFDLTLQQGSHTNIHLLVTTYNLRDAPAESVAYHAQNNAPVPPKPQPKVQEKADVPVKSSPQAAVPYKKDVGKTLCPLCFSILKGPISDALAHHLRERHQVIQTVHPVEKKLTYKCIHCLGVYTSNMTASTITLHLVHCRGVGKTQNGQDKTNAPSRLNQSPGLAPVKRTYEQMEFPLLKKRKLEEDADSPSCFEEKPEEPVVLALDPKGHEDDSYEARKSFLTKYFNKQPYPTRREIEKLAASLWLWKSDIASHFSNKRKKCVRDCEKYKPGVLLGFNMKELNKVKHEMDFDAEWLFENHDEKDSRVNASKTVDKKHNLGKEDDSFSDSFEHLEEESNGSGSPFDPVFEVEPKIPSDNLEEPVPKVIPEGALESEKLDQKEEEEEEEEEDGSKYETIHLTEEPAKLMHDASDSEVDQDDVVEWKDGASPSESGPGSQQISDFEDNTCEMKPGTWSDESSQSEDARSSKPAAKKKATVQDDTEQLKWKNSSYGKVEGFWSKDQSQWENASENAERLPNPQIEWQNSTIDSEDGEQFDSMTDGVADPMHGSLTGVKLSSQQA
modifications: left off: large carriers
notes: full length ADNF III expressed from clone 25, tested as E. coli protein extract
dilutions giving significant neuroprotection against tetrodotoxin [3]: 10^−15-10^−13 | dilutions giving significant neuroprotection against tetrodotoxin ([3]; listed as clone p25): 10^−14 | dilutions giving significant neuroprotection against β-amyloid [6]: > 10^−15 | dilutions giving significant neuroprotection against β-amyloid ([6]; listed as clone p25): 10^−14 | EC50 of neuroprotective effects [7]: in the femtomolar range
